The source of these data is patent US20070135438A1, “INHIBITORS OF HISTONE DEACETYLASE FOR THE TREATMENT OF DISEASE” (KALYPSYS, INC., priority 2005, published 2007).

One test has as its system HDAC. The experiment in a line: In vitro HDAC-inhibition assay (Fluor de Lys fluorescent substrate). To be noted: HDAC enzyme source. In kind it is biochemical. On the procedure: 1) In Vitro HDAC-Inhibition Assay:
This assay measures a compound's ability to inhibit acetyl-lysine deacetylation in vitro and was used as both a primary screening method as well as for IC50 determinations of confirmed inhibitors. The assay is performed in vitro using an HDAC enzyme source (e.g. partially purified nuclear extract or immunopurified HDAC complexes) and a proprietary fluorescent substrate/developer system (HDAC Quantizyme Fluor de Lys Fluorescent Activity Assay, BIOMOL). The assay is run in 1,536-well Greiner white-bottom plates using the following volumes and order of addition:
Step 1: Enzyme (2.5 μL) source added to plate (from refrigerated container)
Step 2: Compounds (50 nL) added with pin transfer device
Step 3: Fluor de Lys (2.5 μL) substrate added, incubate at RT, 30 minutes
Step 4: Developer (5 μL) solution is added (containing TSA), to stop reaction
Step 5: Plate Reader—data collection
The deacetylated fluorophore is excited with 360 nm light and the emitted light (460 nm) is detected on an automated fluorometric plate reader (Aquest, Molecular Devices).

In a further test the test system is HDAC in cells. Nature of the test: Cellular HDAC inhibition (cellular histone hyperacetylation assays). In kind it is cell-based. The settings on record: cellular assay, cell line not stated. As to the method:
2) Cellular Histone Hyperacetylation Assays:
These two secondary assays evaluates a compound's ability to inhibit HDAC in cells by measuring cellular histone acetylation levels. The cytoblot facilitates quantitative EC50 information for cellular HDAC inhibition. Transformed cell lines (e.g. HeLa, A549, MCF-7) are cultured under standard media and culture conditions prior to plating.
Cells (approx. 2,500/well) are allowed to adhere 10-24 hours to wells of a 384-well Greiner PS assay plate in media containing 1-5% serum. Cells are treated with appropriate compound and specific concentrations for 0 to 24 hours. Cells are washed once with PBS (60 μL) and then fixed (95% ethanol, 5% acetic acid or 2% PFA) for 1 minute at RT (30 μL). Cells are blocked with 1% BSA for 1 hour and washed and stained with antibody (e.g. anti-Acetylated Histone H3, Upstate Biotechnology), followed by washing and incubation with an appropriate secondary antibody conjugated to HRP or fluorophore. For luminescence assays, signal is generated using Luminol substrate (Santa Cruz Biotechnology) and detected using an Aquest plate reader (Molecular Devices).
Cells (4×10^5/well) are plated into Corning 6-well dish and allowed to adhere overnight. Cells are treated with compound at appropriate concentration for 12-18 hours at 37° C. Cells are washed with PBS on ice. Cells are dislodged with rubber policeman and lysed in buffer containing 25 mM Tris, pH7.6; 150 mM NaCl, 25 mM MgCl2, 1% Tween-20, and nuclei collected by centrifugation (7500 g). Nuclei are washed once in 25 mM Tris, pH7.6; 10 mM EDTA, collected by centrifugation (7500 g). Supernatant is removed and histones are extracted using 0.4 M HCl. Samples are centrifuged at 14000 g and supernatants are precipitated in 1 ml cold acetone. The histone pellet is dissolved in water and histones are separated and analyzed by SDS-PAGE Coomassie and immunoblotting (anti-acetylated histone antibodies, Upstate Biotechnology) using standard techniques.

In the case of `CC(=O)SCC(=O)c1ccc(NS(=O)(=O)c2ccc(OCCCN(C)C)cc2)nc1` [Example 1, Thioacetic acid S-(2-{6-[4-(3-dimethylamino-propoxy)-benzenesulfonylamino]-pyridin-3-yl}-2-oxo-ethyl)ester], the concentration for half-maximal inhibition (IC50) in the test with HDAC and with HDAC in cells was less than 1 µM each time.

In the case of `CC(=O)SCC(=O)c1ccc(NS(=O)(=O)c2ccc(OCCN(C)C)cc2)nc1` [Example 2, Thioacetic acid S-(2-{6-[4-(2-dimethylamino-ethoxy)-benzenesulfonylamino]-pyridin-3-yl}-2-oxo-ethyl) ester], the IC50 with HDAC and with HDAC in cells was less than 1 µM each time. For `CC(=O)SCC(=O)c1ccc(NS(=O)(=O)c2ccc(OCC(C)(C)CN(C)C)cc2)nc1` [Example 3, Thioacetic acid S-(2-{6-[4-(3-dimethylamino-2,2-dimethyl-propoxy)-benzenesulfonylamino]-pyridin-3-yl}-2-oxo-ethyl) ester], in the test with HDAC in cells, the half-inhibitory concentration (IC50) (usually the concentration at which inhibition is half-maximal) is less than 1 µM. Turning to `CC(=O)SCC(=O)c1ccc(NS(=O)(=O)c2ccc(OCCCCN(C)C)cc2)nc1` [Example 4, Thioacetic acid S-(2-{6-[4-(4-dimethylamino-butoxy)-benzenesulfonylamino]-pyridin-3-yl}-2-oxo-ethyl) ester], the half-maximal inhibitory concentration (IC50) with HDAC and with HDAC in cells was less than 1 µM each time.
